In patent US12227488B2, “Small molecule degraders of Helios and methods of use” (DANA-FARBER CANCER INSTITUTE, INC., priority 2018, dated 2025):
“Also recorded” adds a separate entry of the source.

Experiments:
CRBN and Helios (IKZF2) = target: T1, CRBN and Helios (IKZF2) (Homo sapiens, UniProt Q96SW2+Q9UKS7); experiment: TR-FRET dimerization assay (CRBN-IKZF2 ternary complex formation); assay type: binding; settings: for TR-FRET-IKZF2 (Normalized to CC-885): n=1
T1 construct: His (N); Strep (N)
T1 sequence (Q96SW2 whole entry): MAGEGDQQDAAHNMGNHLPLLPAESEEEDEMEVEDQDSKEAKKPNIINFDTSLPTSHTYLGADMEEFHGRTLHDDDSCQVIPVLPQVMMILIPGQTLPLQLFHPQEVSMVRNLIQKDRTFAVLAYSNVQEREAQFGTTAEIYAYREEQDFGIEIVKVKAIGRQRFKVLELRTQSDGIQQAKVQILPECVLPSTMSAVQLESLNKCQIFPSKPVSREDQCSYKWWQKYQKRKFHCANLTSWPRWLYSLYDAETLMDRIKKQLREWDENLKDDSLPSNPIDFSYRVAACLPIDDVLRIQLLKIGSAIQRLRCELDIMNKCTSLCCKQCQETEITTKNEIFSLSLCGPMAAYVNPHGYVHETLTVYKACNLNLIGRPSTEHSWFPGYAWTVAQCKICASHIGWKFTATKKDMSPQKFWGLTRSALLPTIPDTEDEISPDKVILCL
T1 sequence (Q9UKS7 whole entry): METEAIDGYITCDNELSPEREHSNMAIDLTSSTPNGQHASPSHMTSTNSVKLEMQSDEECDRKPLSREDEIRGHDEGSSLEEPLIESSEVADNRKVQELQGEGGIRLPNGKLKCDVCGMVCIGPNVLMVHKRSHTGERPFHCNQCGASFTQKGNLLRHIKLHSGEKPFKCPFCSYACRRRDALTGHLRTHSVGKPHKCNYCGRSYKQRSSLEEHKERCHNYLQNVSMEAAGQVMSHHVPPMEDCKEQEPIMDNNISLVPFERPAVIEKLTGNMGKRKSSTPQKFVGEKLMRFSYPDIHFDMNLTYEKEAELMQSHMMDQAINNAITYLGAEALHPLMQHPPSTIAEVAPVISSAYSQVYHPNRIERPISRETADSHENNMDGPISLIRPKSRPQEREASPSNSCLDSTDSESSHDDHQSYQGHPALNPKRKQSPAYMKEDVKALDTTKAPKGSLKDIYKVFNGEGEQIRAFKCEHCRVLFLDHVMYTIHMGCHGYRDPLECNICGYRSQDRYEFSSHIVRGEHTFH
Summary of the method: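 BODIPY-labeled DDB1ΔB-CRBN and in vitro biotinylated IKZF2 were treated with increasing compound concentrations plus tracer Terbium-Streptavidin and incubated 15 min at rt. Recruitment was quantified as the 520/490 nm TR-FRET ratio; values are single measurements (n=1), each averaged from at least three technical replicates.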

IKZF2 = experiment: Cellular degradation assay, eGFP-IKZF2Δ fusion with mCherry reporter in Flp-In 293 cells; assay type: cell-based; settings: 5 h incubation, n=1
Summary of the method: (§1)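 Flp-In 293 cells stably expressing eGFP-tagged degron fusions with P2A-mCherry reporter were treated with compound titrations (0.5% DMSO) for 5 hours. Imaging quantified GFP-positive/mCherry-positive cell fraction per well; DC50 at 5 h from nonlinear variable-slope fit.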

IKZF1 = target: T2, IKZF1 (Homo sapiens, UniProt Q13422); experiment: Cellular degradation assay, eGFP-IKZF1Δ fusion with mCherry reporter in Flp-In 293 cells; assay type: cell-based; settings: 5 h incubation, n=1
T2 construct: expressed in transfected cells; host or cells: Flp-In 293
T2 sequence (Q13422 83-213 isoform Q13422-7 limits assumed): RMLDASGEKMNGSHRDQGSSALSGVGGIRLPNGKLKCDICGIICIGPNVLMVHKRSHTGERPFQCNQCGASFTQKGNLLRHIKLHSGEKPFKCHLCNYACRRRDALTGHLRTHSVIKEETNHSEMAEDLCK
T2 sequence (Q96SW2 whole entry partner, the tested form may be a part): as the sequence (Q96SW2 whole entry) above
T2 sequence (Q16531 2-1140 partner limits assumed): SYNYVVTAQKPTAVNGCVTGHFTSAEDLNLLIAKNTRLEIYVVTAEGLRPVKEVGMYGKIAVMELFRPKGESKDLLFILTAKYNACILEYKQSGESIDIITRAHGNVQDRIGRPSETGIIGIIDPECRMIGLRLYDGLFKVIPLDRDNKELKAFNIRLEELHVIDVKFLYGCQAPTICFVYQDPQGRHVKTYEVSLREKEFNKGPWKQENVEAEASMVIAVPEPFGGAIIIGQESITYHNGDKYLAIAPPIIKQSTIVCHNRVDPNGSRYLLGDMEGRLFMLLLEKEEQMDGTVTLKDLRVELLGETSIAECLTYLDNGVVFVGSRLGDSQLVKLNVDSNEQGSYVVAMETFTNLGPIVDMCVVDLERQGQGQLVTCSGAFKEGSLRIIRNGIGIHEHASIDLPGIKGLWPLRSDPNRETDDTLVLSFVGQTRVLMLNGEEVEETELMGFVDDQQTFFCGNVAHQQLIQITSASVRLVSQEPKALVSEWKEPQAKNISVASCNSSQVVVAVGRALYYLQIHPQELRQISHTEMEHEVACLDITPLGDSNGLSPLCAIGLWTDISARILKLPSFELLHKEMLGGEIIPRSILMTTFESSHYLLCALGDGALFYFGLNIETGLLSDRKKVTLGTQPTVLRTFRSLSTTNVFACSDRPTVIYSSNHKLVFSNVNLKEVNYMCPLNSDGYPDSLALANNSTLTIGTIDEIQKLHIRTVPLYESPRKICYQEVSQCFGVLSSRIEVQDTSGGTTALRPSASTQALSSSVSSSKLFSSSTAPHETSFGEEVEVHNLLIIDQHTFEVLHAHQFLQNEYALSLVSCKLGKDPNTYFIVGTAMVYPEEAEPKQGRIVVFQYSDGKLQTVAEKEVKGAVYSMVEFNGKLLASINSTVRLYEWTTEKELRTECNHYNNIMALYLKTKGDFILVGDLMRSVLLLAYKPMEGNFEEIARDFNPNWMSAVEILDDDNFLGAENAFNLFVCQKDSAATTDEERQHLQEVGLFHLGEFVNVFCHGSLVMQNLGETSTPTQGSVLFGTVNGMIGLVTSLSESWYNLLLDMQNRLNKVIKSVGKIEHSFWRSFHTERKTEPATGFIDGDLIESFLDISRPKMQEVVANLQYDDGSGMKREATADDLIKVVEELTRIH
Summary of the method: as §1

SALL4 ZNF1-2 = target: T3, SALL4 ZNF1-2 (Homo sapiens, UniProt Q96SW2+Q9UJQ4); experiment: Cellular degradation assay, eGFP-SALL4 ZnF1-2 fusion with mCherry reporter in Flp-In 293 cells; assay type: cell-based; settings: 5 h incubation, n=1
T3 construct: IKZF1Δ, IKZF2Δ, GSPT1 and SALL4 ZnF1-2 were subcloned; expressed in transfected cells; host or cells: Flp-In 293
T3 sequence (Q9UJQ4 378-438 limits assumed): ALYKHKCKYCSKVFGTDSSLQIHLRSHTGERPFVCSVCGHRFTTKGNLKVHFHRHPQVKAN
T3 sequence (Q96SW2 whole entry, the tested form may be a part): as the sequence (Q96SW2 whole entry) above
T3 sequence (Q16531 whole entry partner, the tested form may be a part): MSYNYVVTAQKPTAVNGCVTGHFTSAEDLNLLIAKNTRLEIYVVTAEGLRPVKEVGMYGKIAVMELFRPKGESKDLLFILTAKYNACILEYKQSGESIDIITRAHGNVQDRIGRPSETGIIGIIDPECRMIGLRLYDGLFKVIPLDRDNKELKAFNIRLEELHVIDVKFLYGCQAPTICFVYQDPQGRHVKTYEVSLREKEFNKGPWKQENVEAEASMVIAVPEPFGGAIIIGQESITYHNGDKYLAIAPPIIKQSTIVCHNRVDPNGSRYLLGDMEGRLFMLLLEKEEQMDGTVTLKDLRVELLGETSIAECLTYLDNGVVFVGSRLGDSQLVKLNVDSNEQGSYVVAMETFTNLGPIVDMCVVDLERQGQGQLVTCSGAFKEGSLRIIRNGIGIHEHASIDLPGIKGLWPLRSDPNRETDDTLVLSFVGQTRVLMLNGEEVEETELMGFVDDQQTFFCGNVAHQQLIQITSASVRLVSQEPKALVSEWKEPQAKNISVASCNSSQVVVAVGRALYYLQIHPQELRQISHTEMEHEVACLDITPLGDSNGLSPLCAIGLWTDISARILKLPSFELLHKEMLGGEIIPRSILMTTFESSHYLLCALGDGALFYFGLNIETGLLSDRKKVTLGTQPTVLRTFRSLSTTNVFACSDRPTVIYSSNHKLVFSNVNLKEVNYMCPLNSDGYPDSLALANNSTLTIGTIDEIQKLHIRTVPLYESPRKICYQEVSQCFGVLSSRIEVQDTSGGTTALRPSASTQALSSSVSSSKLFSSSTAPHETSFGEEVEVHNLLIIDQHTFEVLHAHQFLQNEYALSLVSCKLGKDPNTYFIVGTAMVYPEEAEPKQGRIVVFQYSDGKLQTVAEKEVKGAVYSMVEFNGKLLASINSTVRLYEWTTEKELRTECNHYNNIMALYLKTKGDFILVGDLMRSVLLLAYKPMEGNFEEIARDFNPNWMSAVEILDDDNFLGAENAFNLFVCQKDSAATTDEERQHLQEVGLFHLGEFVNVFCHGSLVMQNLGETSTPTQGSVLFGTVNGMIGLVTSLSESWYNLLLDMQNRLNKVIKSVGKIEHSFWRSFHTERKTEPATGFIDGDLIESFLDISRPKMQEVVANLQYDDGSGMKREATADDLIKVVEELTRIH
Summary of the method: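 Flp-In 293 cells stably expressing eGFP-SALL4 ZnF1-2 fusion plus mCherry reporter were treated with compound titrations (0.5% DMSO) for 5 hours. Imaging at 488/561 nm gave, per well, the fraction of GFP-positive among mCherry-positive cells.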

Helios = target: T4, Helios (Homo sapiens, UniProt Q96SW2+Q9UKS7); experiment: Immunoblot for Helios in Jurkat cells; assay type: cell-based; settings: Jurkat cells, 24 h treatment
T4 construct: endogenous in cells; host or cells: Jurkat
T4 sequence (Q9UKS7 whole entry): as the sequence (Q9UKS7 whole entry) above
T4 sequence (Q96SW2 whole entry): as the sequence (Q96SW2 whole entry) above
T4 sequence (Q16531 whole entry partner): as the sequence (Q16531 whole entry partner, the tested form may be a part) above
Protocol: (§2) A focused library of imide analogs was synthesized and assessed for their ability to induce dimerization between CRBN and Helios in a time-resolved fluorescence energy transfer (TR-FRET) assay (FIG. 1A).
(§3) Cells were lysed in M-PER buffer (Thermo Scientific) containing protease/phosphatase inhibitor cocktail (Roche). Protein concentration was measured using a BCA assay (Pierce™) Equivalent amounts of each sample were loaded on 4-12% Bis-Tris gels (Invitrogen™) transferred to nitrocellulose membranes, and immunoblotted with the indicated antibodies. IRDye®800-labeled goat anti-rabbit IgG and IRDye®680-labeled goat anti-mouse IgG (LI-COR®) secondary antibodies were purchased from LI-COR®, and membranes were detected on an Odyssey® detection system (LI-COR® Biosciences).
Cells were lysed in M-PER buffer (Thermo Scientific) containing protease/phosphatase inhibitor cocktail (Roche). Protein concentration was measured using a BCA assay (Pierce™) Equivalent amounts of each sample were loaded on 4-12% Bis-Tris gels (Invitrogen™) transferred to nitrocellulose membranes, and immunoblotted with the indicated antibodies. IRDye®800-labeled goat anti-rabbit IgG and IRDye®680-labeled goat anti-mouse IgG (LI-COR®) secondary antibodies were purchased from LI-COR®, and membranes were detected on an Odyssey detection system (LI-COR® Biosciences).

Ikaros = target: T5, Ikaros (Homo sapiens, UniProt Q13422+Q96SW2); experiment: Immunoblot for Ikaros in Jurkat cells; assay type: cell-based; settings: 24 h treatment
T5 construct: endogenous in cells; host or cells: Jurkat
T5 sequence (Q13422 whole entry): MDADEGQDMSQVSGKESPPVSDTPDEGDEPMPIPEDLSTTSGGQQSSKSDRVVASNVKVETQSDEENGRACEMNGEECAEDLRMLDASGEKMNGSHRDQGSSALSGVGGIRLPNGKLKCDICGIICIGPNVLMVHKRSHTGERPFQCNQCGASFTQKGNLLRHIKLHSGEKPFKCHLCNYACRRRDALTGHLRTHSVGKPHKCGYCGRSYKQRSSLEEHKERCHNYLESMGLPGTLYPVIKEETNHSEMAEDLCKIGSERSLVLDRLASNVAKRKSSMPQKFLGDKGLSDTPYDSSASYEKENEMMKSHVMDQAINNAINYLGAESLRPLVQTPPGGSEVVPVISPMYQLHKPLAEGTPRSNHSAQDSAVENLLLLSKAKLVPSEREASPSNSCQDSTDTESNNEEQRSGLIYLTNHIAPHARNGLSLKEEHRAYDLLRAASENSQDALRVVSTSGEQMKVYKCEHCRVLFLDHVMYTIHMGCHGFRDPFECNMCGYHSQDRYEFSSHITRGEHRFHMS
T5 sequence (Q96SW2 whole entry): as the sequence (Q96SW2 whole entry) above
T5 sequence (Q16531 whole entry partner): as the sequence (Q16531 whole entry partner, the tested form may be a part) above
Protocol: as §2, §3

GSPT1 = GSPT1 (Homo sapiens, UniProt P15170+Q96SW2); experiment: Cellular degradation assay, eGFP-GSPT1 fusion with mCherry reporter in Flp-In 293 cells; assay type: cell-based; set-up: expressed in transfected cells; host or cells: Flp-In 293; settings: 5 h incubation, n=1
Chain of GSPT1 (P15170 whole entry, the tested form may be a part): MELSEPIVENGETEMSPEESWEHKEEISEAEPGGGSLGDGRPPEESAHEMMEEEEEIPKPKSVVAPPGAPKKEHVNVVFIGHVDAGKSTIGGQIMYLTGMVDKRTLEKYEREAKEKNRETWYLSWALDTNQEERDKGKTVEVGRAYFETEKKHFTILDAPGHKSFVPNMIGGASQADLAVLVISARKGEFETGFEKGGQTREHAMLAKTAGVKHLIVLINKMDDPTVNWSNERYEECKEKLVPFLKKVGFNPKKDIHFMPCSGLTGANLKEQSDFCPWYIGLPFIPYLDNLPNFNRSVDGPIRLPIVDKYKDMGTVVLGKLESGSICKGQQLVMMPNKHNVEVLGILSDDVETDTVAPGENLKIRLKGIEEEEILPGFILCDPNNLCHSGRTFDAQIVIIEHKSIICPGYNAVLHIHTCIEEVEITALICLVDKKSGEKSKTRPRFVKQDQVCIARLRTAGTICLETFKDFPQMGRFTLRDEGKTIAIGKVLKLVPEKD
Chain of GSPT1 (Q96SW2 whole entry, the tested form may be a part): as the sequence (Q96SW2 whole entry) above
Chain of GSPT1 (Q16531 whole entry partner, the tested form may be a part): as the sequence (Q16531 whole entry partner, the tested form may be a part) above
Summary of the method: as §1

[1] = compound concentration 6.6667E−05
[2] = compound concentration 6.6667E−06
[3] = compound concentration 6.6667E−07 (667 nM)
[4] = compound concentration 2.00E−05
[5] = compound concentration 2.00E−06
[6] = compound concentration 2.00E−07

SMILES | TR-FRET signal (520/490 ratio), CRBN-Helios dimerization, in words (CRBN and Helios (IKZF2); FIG. 1B, 2A, 5) | TR-FRET-IKZF2 (Normalized to CC-885) (CRBN and Helios (IKZF2); [1]) | TR-FRET-IKZF2 (Normalized to CC-885) (CRBN and Helios (IKZF2); [2]) | TR-FRET-IKZF2 (Normalized to CC-885) (CRBN and Helios (IKZF2); [3]) | IKZF2 GFP/RFP Relative Abundance (IKZF2; [4]) | IKZF2 GFP/RFP Relative Abundance (IKZF2; [5]) | IKZF2 GFP/RFP Relative Abundance (IKZF2; [6]) | IKZF1 GFP/RFP Relative Abundance (IKZF1; [4]) | IKZF1 GFP/RFP Relative Abundance (IKZF1; [5]) | IKZF1 GFP/RFP Relative Abundance (IKZF1; [6]) | SALL4 ZNF1-2 GFP/RFP Relative Abundance (SALL4 ZNF1-2; [4]) | SALL4 ZNF1-2 GFP/RFP Relative Abundance (SALL4 ZNF1-2; [5]) | SALL4 ZNF1-2 GFP/RFP Relative Abundance (SALL4 ZNF1-2; [6]) | Helios loss (immunoblot) (Helios) | Ikaros loss (immunoblot) (Ikaros) | GSPT1 GFP/RFP Relative Abundance (GSPT1; [4]) | GSPT1 GFP/RFP Relative Abundance (GSPT1; [5]) | GSPT1 GFP/RFP Relative Abundance (GSPT1; [6])
Cc1ccc(NC(=O)NCc2cccc(NC3=CC(=O)N(C4CCC(=O)NC4=O)C3=O)c2)cc1Cl (stereo not drawn) [Compound 44, 1-(3-chloro-4-methylphenyl)-3-(3-((1-(2,6-dioxopiperidin-3-yl)-2,5-dioxo-2,5-dihydro-1H-pyrrol-3-yl)amino)benzyl)urea] | increased activity over CC-885 at all tested concentrations | 1.223 | 1.191 | 1.119 | 0.042 | 0.079 | 0.085 | 0.059 | 0.071 | 0.072 | 0.888 | 0.742 | 0.702 | induced loss of both Ikaros and Helios; also recorded: required 24 h treatment | induced loss of both Ikaros and Helios | 0.399 | 0.504 | 0.744
Cc1ccc(NC(=O)NCCCNC2=CC(=O)N(C3CCC(=O)NC3=O)C2=O)cc1Cl (stereo not drawn) [Compound 47, 1-(3-chloro-4-methylphenyl)-3-(3-((1-(2,6-dioxopiperidin-3-yl)-2,5-dioxo-2,5-dihydro-1H-pyrrol-3-yl)amino)propyl)urea] | – | 0.288 | 0.230 | 0.191 | 1.019 | 1.051 | 0.995 | 0.312 | 0.298 | 0.326 | 1.060 | 1.039 | 1.010 | – | – | 0.034 | 0.041 | 0.036
